Experimental findings from patent US20110195911A1, “SYNTHETIC ANALOGS OF THE JUXTAMEMBRANE DOMAIN OF IGF1R AND USES THEREOF” (THE UNITED STATES OF AMERICA,AS REPRESENTED BY THE …, priority 2008, published 2011) are described below.

The subject of the experiment is MCF-7 breast cancer cells. In words: MTT cell toxicity assay in MCF-7 breast cancer cells. Format: cell-based. The following applies: MCF-7 cells, MTT; for GI50 / TGI: final 0.5% FBS, two days with compound; for TGI: concentration of total growth inhibition (cytostatic); for growth inhibition / potency in MCF-7 cells (in words): comparison with related peptides. How it is done: Cell Toxicity Assays: MCF-7 (breast cancer), T47D (breast cancer), Colo 205 (colon cancer), JM-1 (rat hepatoma), Sk Me1-2 (melanoma), PLC (human hepatoma), and HepG2 (human hepatoma) cells were obtained from American Type Cell Culture Collection. MCF-7 cells were grown in RPMI medium supplemented with 10% Fetal Bovine Serum. The rest of the cell lines were grown in DMEM medium supplemented with 10% Fetal Bovine Serum.
MTT 43-(4,5-Dimethylthiazol-2-yl)-2,5-diphenyltetrazolium) cell assay was performed using MCF-7 breast cancer cells. For the assay, cells were seeded into 96 well plates in medium containing 1% Fetal Bovine Serum and 100 μL of a cell suspension containing 5000 cells per well. Wells containing medium-only, and wells containing untreated cells, served as controls.
Seeded cells were allowed to attach and grow in the wells for 24 hours. A 5 mM stock solution of each peptide was made by dissolving approximately 1 mg of peptide in appropriate amount of DMSO. 2 mL dilutions were used to make 0.2 μM, 1.0 μM, 5.0 μM, and 10.0 μM concentration solutions of the compounds in serum-free medium. 100 μl, of the resulting 2× solutions were added to the corresponding wells to provide a final FBS concentration of 0.5% and 0.1 μM, 0.5 μM, 2.5 μM, and 5.0 μM dilutions of inhibitors. The cells were incubated with test compounds for two days. The control wells were given 100 μL of medium to ensure maximum similarity to the test wells so that all of the wells had 200 μL of medium during the growth period. An individual plate was made for Time Zero, to which the dye was added at the time of addition of compounds.
An alternative potency assay was used to test compounds in MCF-7 (breast cancer), T47D (breast cancer), Colo 205 (colon cancer), JM-1 (rat hepatoma), Sk MeI-2 (melanoma), PLC (human hepatoma), and HepG2 (human hepatoma) cells. Cells were suspended at a concentration of approximately 5000 cells per 100 μL of suspension in a 5% FBS RPMI medium. The cells were seeded into 96-count wells and incubated over night. After one day's incubation, the 5% FBS medium was aspirated and replaced with 100 μL of no serum RPMI medium containing 1 mg Bovine Serum Albumin (BSA) per 1 mL RPMI. Various concentrations of the test compounds were prepared by dilution in no-serum medium containing 1 mg BSA/mL. 75 μL of the test compound solutions were added to the wells, and the cells were allowed to incubate for 15-20 minutes, after which time 25 μL of human recombinant IGF-1 (Peprotech) solution was added to the wells to attain final concentrations of 10 ng IGF-1/mL medium. The control wells were given 175 μL of no-serum medium in addition to 25 μL of IGF-1 solution. An individual plate was made for time zero, in which the medium was also aspirated and replaced with 175 μL of no-serum medium and 25 μL of IGF-1. 15 μL of MTT dye was added and let incubate for 4 hours, after which time a stop stop solubilization solution was added. The stop solution lysed the cells and released the dye reduced by the remaining living cells. Absorbance of the wells at 544 nm was determined by a FLUOstar/POLARstar Galaxy (BMG Lab Technologies GmbH) microplate reader. The activity was calculated from the data using the formula: 100×[(T−T0)/(C−T0)] for T>T0 and 100×[(T−T0)/T0] for T<T0, wherein T0 corresponds to cell density at the time of drug addition, “T” is the optical density of the test well after a 48-h period of exposure to test drug, and “C” is the control optical density. The GI50 measures the growth inhibitory power of the test agent, and is defined as the concentration of test drug where 100×(T−T0)/(C−T0)=50. The TGI is the concentration of test drug where 100×(T−T0)/(C−T0)=0. Thus, the TGI signifies a cytostatic effect.

Where a SMILES comes first, the peptide text is derived from it. The star is where a group is joined. Palmitoyl = CCCCCCCCCCCCCCCC(=O)*

In the case of `CCCCCCCCCCCCCCCC(=O)N[C@@H](CCCNC(=N)N)C(=O)N[C@@H](CCC(N)=O)C(=O)N1CCC[C@H]1C(=O)N[C@@H](CC(=O)O)C(=O)NCC(=O)N1CCC[C@H]1C(=O)N[C@@H](CC(C)C)C(=O)NCC(=O)N1CCC[C@H]1C(=O)N[C@@H](CC(C)C)C(=O)N[C@@H](Cc1ccc(O)cc1)C(N)=O` [IR-2, Pal-RQPDGPLGPLY-NH2] (Palmitoyl-RQPDGPLGPLY-NH2), the GI50 is 60 ± 1 nM, the TGI was 400 ± 50 nM and the “growth inhibition / potency in MCF-7 cells (in words)” value was “inhibited growth”.
Regarding `CCCCCCCCCCCCCCCC(=O)N[C@@H](Cc1c[nH]cn1)C(=O)N[C@@H](CCCNC(=N)N)C(=O)N[C@@H](CCCCN)C(=O)N[C@@H](CCCNC(=N)N)C(=O)N[C@@H](CC(N)=O)C(=O)N[C@@H](CC(N)=O)C(=O)N[C@@H](CO)C(=O)N[C@@H](CCCNC(=N)N)C(=O)N[C@@H](CC(C)C)C(=O)NCC(=O)N[C@@H](CC(N)=O)C(=O)NCC(N)=O` [Peptide 1, Pal-HRKRNNSRLGNG-NH2] (Palmitoyl-HRKRNNSRLGNG-NH2), the GI50 was 1800 ± 50 nM and the TGI is above 5000 nM.
Taken in the same sequence, the figures for `CCCCCCCCCCCCCCCC(=O)N[C@@H](Cc1c[nH]cn1)C(=O)N[C@@H](CCCNC(=N)N)C(=O)N[C@@H](CCCCN)C(=O)N[C@@H](CCCNC(=N)N)C(=O)N[C@@H](CC(N)=O)C(=O)N[C@@H](CC(N)=O)C(=O)N[C@@H](CO)C(=O)N[C@@H](CCCNC(=N)N)C(=O)N[C@@H](CC(C)C)C(=O)NCC(N)=O` [Peptide 2, Pal-HRKRNNSRLG-NH2] (Palmitoyl-HRKRNNSRLG-NH2) were 1300 ± 50 nM and above 5000 nM.
For `CCCCCCCCCCCCCCCC(=O)N[C@@H](Cc1c[nH]cn1)C(=O)N[C@@H](CCCNC(=N)N)C(=O)N[C@@H](CCCCN)C(=O)N[C@@H](CCCNC(=N)N)C(=O)N[C@@H](CC(N)=O)C(=O)N[C@@H](CC(N)=O)C(=O)N[C@@H](CO)C(=O)N[C@@H](CCCNC(=N)N)C(=O)N[C@@H](CC(C)C)C(=O)NCC(=O)N[C@@H](CC(N)=O)C(=O)NCC(=O)N[C@H](C(=O)N[C@@H](CC(C)C)C(=O)N[C@@H](Cc1ccc(O)cc1)C(=O)N[C@@H](C)C(=O)N[C@@H](CO)C(=O)N[C@H](C(=O)N[C@@H](CC(N)=O)C(N)=O)C(C)C)C(C)C` [Peptide 3, Pal-HRKRNNSRLGNGVLYASVN-NH2] (Palmitoyl-HRKRNNSRLGNGVLYASVN-NH2), the “cell killing activity (in words)” value is listed as “exhibited cell killing activity” and the total growth inhibition concentration (TGI) was determined as 1550 ± 100 nM.
For the compound `CCCCCCCCCCCCCCCC(=O)N[C@@H](Cc1c[nH]cn1)C(=O)N[C@@H](CCCNC(=N)N)C(=O)N[C@@H](CCCCN)C(=O)N[C@@H](CCCNC(=N)N)C(=O)N[C@@H](CC(N)=O)C(=O)N[C@@H](CC(N)=O)C(=O)N[C@@H](CO)C(=O)N[C@@H](CCCNC(=N)N)C(=O)N[C@@H](CC(C)C)C(=O)NCC(=O)N[C@@H](CC(N)=O)C(=O)NCC(=O)N[C@H](C(=O)N[C@@H](CC(C)C)C(=O)N[C@@H](Cc1ccc(O)cc1)C(=O)N[C@@H](C)C(=O)N[C@@H](CO)C(=O)N[C@H](C(=O)N[C@@H](CC(N)=O)C(=O)N1CCC[C@H]1C(=O)N[C@@H](CCC(=O)O)C(=O)N[C@@H](Cc1ccc(O)cc1)C(=O)N[C@@H](Cc1ccccc1)C(=O)N[C@@H](CO)C(=O)N[C@@H](C)C(=O)N[C@@H](C)C(N)=O)C(C)C)C(C)C` [Peptide 4] (Palmitoyl-HRKRNNSRLGNGVLYASVNPEYFSAA-NH2), the GI50 was determined as 1000 ± 50 nM and the TGI is above 5000 nM.
On to `CCCCCCCCCCCCCCCC(=O)N[C@@H](Cc1c[nH]cn1)C(=O)N[C@@H](CCCNC(=N)N)C(=O)N[C@@H](CCCCN)C(=O)N[C@@H](CCCNC(=N)N)C(=O)N[C@@H](CC(N)=O)C(=O)N[C@@H](CC(N)=O)C(=O)N[C@@H](CO)C(=O)N[C@@H](CCCNC(=N)N)C(=O)N[C@@H](CC(C)C)C(=O)NCC(=O)N[C@@H](CC(N)=O)C(=O)NCC(=O)N[C@H](C(=O)N[C@@H](CC(C)C)C(=O)N[C@@H](Cc1ccc(O)cc1)C(=O)N[C@@H](C)C(=O)N[C@@H](CO)C(=O)N[C@H](C(N)=O)C(C)C)C(C)C` [Peptide 5, Pal-HRKRNNSRLGNGVLYASV-NH2] (Palmitoyl-HRKRNNSRLGNGVLYASV-NH2), for which the GI50 was 450 ± 50 nM, the TGI was found to be 1450 ± 300 nM and the “growth inhibition / potency in MCF-7 cells (in words)” value is “increased the potency”.
As to `CCCCCCCCCCCCCCCC(=O)N[C@H](C(=O)N[C@@H](Cc1c[nH]cn1)C(=O)N[C@@H](CCCNC(=N)N)C(=O)N[C@@H](CCCCN)C(=O)N[C@@H](CCCNC(=N)N)C(=O)N[C@@H](CC(N)=O)C(=O)N[C@@H](CC(N)=O)C(=O)N[C@@H](CO)C(=O)N[C@@H](CCCNC(=N)N)C(=O)N[C@@H](CC(C)C)C(=O)NCC(=O)N[C@@H](CC(N)=O)C(=O)NCC(=O)N[C@H](C(=O)N[C@@H](CC(C)C)C(=O)N[C@@H](Cc1ccc(O)cc1)C(=O)N[C@@H](C)C(=O)N[C@@H](CO)C(=O)N[C@H](C(N)=O)C(C)C)C(C)C)C(C)C` [Peptide 6, Pal-VHRKRNNSRLGNGVLYASV-NH2] (Palmitoyl-VHRKRNNSRLGNGVLYASV-NH2), the concentration for 50% growth inhibition (GI50) is 250 ± 30 nM and the TGI was determined as 1050 ± 100 nM.
Taken in the same sequence, the figures for `CCCCCCCCCCCCCCCC(=O)N[C@@H](Cc1c[nH]cn1)C(=O)N[C@@H](CCCNC(=N)N)C(=O)N[C@@H](CCCCN)C(=O)N[C@@H](CCCNC(=N)N)C(=O)N[C@@H](CC(N)=O)C(=O)N[C@@H](CC(N)=O)C(=O)N[C@@H](CO)C(=O)N[C@@H](CCCNC(=N)N)C(=O)N[C@@H](CC(C)C)C(=O)NCC(=O)N[C@@H](CC(N)=O)C(=O)NCC(=O)N[C@H](C(=O)N[C@@H](CC(C)C)C(=O)N[C@@H](Cc1ccc(O)cc1)C(=O)N[C@@H](C)C(=O)N[C@@H](CO)C(N)=O)C(C)C` [Peptide 7, Pal-HRKRNNSRLGNGVLYAS-NH2] (Palmitoyl-HRKRNNSRLGNGVLYAS-NH2) were 1450 ± 100 nM and 4100 ± 300 nM.
The corresponding values for `CCCCCCCCCCCCCCCC(=O)N[C@@H](Cc1c[nH]cn1)C(=O)N[C@@H](CCCNC(=N)N)C(=O)N[C@@H](CCCCN)C(=O)N[C@@H](CCCNC(=N)N)C(=O)N[C@@H](CC(N)=O)C(=O)N[C@@H](CC(N)=O)C(=O)N[C@@H](CO)C(=O)N[C@@H](CCCNC(=N)N)C(=O)N[C@@H](CC(C)C)C(=O)NCC(=O)N[C@@H](CC(N)=O)C(=O)NCC(=O)N[C@H](C(=O)N[C@@H](CC(C)C)C(=O)N[C@@H](Cc1ccc(O)cc1)C(=O)N[C@@H](C)C(N)=O)C(C)C` [Peptide 8, Pal-HRKRNNSRLGNGVLYA-NH2] (Palmitoyl-HRKRNNSRLGNGVLYA-NH2) are 1400 ± 100 nM and above 5000 nM.
The corresponding values for `CCCCCCCCCCCCCCCC(=O)N[C@@H](Cc1c[nH]cn1)C(=O)N[C@@H](CCCNC(=N)N)C(=O)N[C@@H](CCCCN)C(=O)N[C@@H](CCCNC(=N)N)C(=O)N[C@@H](CC(N)=O)C(=O)N[C@@H](CC(N)=O)C(=O)N[C@@H](CO)C(=O)N[C@@H](CCCNC(=N)N)C(=O)N[C@@H](CC(C)C)C(=O)NCC(=O)N[C@@H](CC(N)=O)C(=O)NCC(=O)N[C@H](C(=O)N[C@@H](CC(C)C)C(N)=O)C(C)C` [Peptide 10, Pal-HRKRNNSRLGNGVL-NH2] (Palmitoyl-HRKRNNSRLGNGVL-NH2) are 1800 ± 100 nM and above 5000 nM.
